According to paper PMC5933338 (Drug Design, Development and Therapy, 2018):

Target: wild type (WT) A/M2 protein (Influenza A virus, UniProt P0DOF5)
Assay: cell-based

wild type (WT) A/M2 protein, sequence (P0DOF5 whole entry, looked up): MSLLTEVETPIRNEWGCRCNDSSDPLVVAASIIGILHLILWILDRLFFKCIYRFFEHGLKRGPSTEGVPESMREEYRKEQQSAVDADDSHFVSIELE

Which results are given for `CCCCNC(C)C12CC3CC(CC(C3)C1)C2` (centres unmarked) [Compound 5a, (1-Adamantan-1-yl-ethyl)-butyl-amine]?
M2 WT inhibitory activity relative to that of 4c (100 µM, 5a versus rimantadine dimer 4c): approximately fourfold; inhibition at 100 µM (read-out: percentage inhibition of A/M2 current (WT)): 40%
